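Each compound was tested at five concentrations against cells in 96-well plates for 48 hours. At the GI50, growth is halved. At the TGI there is no net growth.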
How the values were obtained:
Experiment in all cases: NCI anticancer screen, dose series, 48 h
NCI-H226 lung = tested on: NCI-H226 lung
M14 melanoma = tested on: M14 melanoma
HCC-2998 colon = tested on: HCC-2998 colon
K-562 leukemia = tested on: K-562 leukemia
UACC-62 melanoma = tested on: UACC-62 melanoma
SF-295 CNS = tested on: SF-295 CNS
HOP-92 NSCLC = tested on: HOP-92 NSCLC
SR leukemia = tested on: SR leukemia
HS 578T breast = tested on: HS 578T breast
MCF7 breast = tested on: MCF7 breast

SMILES	TGI (NCI-H226 lung) [µM]	TGI (M14 melanoma) [µM]	TGI (HCC-2998 colon) [µM]	TGI (K-562 leukemia) [µM]	TGI (UACC-62 melanoma) [µM]	TGI (SF-295 CNS) [µM]	TGI (HOP-92 NSCLC) [µM]	TGI (SR leukemia) [µM]	TGI (HS 578T breast) [µM]	TGI (MCF7 breast) [µM]	GI50 (NCI-H226 lung) [µM]	GI50 (M14 melanoma) [µM]	GI50 (HS 578T breast) [µM]	GI50 (K-562 leukemia) [µM]	GI50 (HOP-92 NSCLC) [µM]	GI50 (UACC-62 melanoma) [µM]	GI50 (MCF7 breast) [µM]	GI50 (SF-295 CNS) [µM]
Cc1c(C(=O)c2ccccc2C(=O)O)c2ccccc2n1C	> 100	> 100	> 100	> 100	> 100	> 100												
C=C=C(CC)C(C(=O)OC)N(CC)CC (stereo not given)	> 100	> 100		> 100	> 100	> 100	> 100	> 100										
CC(=O)O[C@H]1CC[C@@]2(C)C(=CC[C@H]3C4=CC=C(C(C)=O)[C@@]4(C)CCC32)C1 (stereo not given in full)	71.4	> 100	> 100		46.8	> 100	> 100	81										
COc1cccc(C(=O)N2CCc3ccccc32)c1OC	> 100	> 100	> 100	> 100	> 100	> 100	> 100	> 100										
CCCCCCCC(=O)OC(CBr)COC(=O)C(C)(C)C (stereo not given)	> 100	> 100	> 100	> 100	> 100	> 100	> 100	57.1										
C1CSCCCSCCSCCCSC1	> 100	> 100	> 100	> 100	> 100	> 100	> 100		> 100	> 100								
CCC(=O)C(C)C1=Nc2nnc(CCCCCCCc3nnc4n3C(=O)C(C(C)C(=O)CC)=N4)n2C1=O (stereo not given)	> 100	> 100	> 100	> 100	> 100	> 100	> 100	> 100										
COC1OC(CO)C(O)C(O)C1Br (stereo not given)		> 100	> 100	> 100	> 100	> 100	> 100	> 100										
O=c1cc2ccccc2nn1Cc1ccccc1Cl	> 100	> 100	> 100	> 100	> 100	> 100	> 100											
CN(CN1C(=O)C2Cc3ccccc3CN2C1=O)c1ccccn1 (stereo not given)	> 100	> 100	> 100	> 100	> 100	> 100		> 100										
O=C(O)/C(=C/c1c(O)ccc2ccccc12)c1csc(-c2nc(/C(=C\c3c(O)ccc4ccccc34)C(=O)O)cs2)n1	7.39	25.4	32.4	38.6	23.3	28.5	7.77											
C1CCN(c2nsc(N3CCCCC3)n2)CC1	> 100	> 100	> 100	> 100	> 100	> 100	> 100	> 100										
O=C(Nc1ccc(Cl)cc1)c1ccc(NC2=C(Cl)C(=O)N(Cc3ccccc3)C2=O)cc1	28.4	35.8		48.9	44.3	19.9	25.1		49.8	33.8	11.2	15.2	18.4	3.29	9.19	17.9	15.3	5.8
CN1c2ccccc2N(C)C2C1N(C)c1ccccc1N2C (stereo not given)	83.2	65	30.9	> 100	24.9	> 100	52.4											
COc1cc2noc(-c3ccccc3)c2cc1OC	> 100	> 100	> 100	> 100	> 100	38.6	> 100	> 100										
CC(=O)OCCOCNC(=S)N/N=C(\C)c1cnc2ccccc2n1	> 100	> 100	> 100	> 100	39.7	> 100		> 100										
Cc1nc2c(n1C(C)(C)C)C(=O)c1ccccc1C2=O	> 100	> 100	> 100	> 100	> 100	> 100	66.4	> 100										
C(CCC[Te][Te]CCCCCCOC1CCCCO1)CCOC1CCCCO1 (stereo not given)		> 100	27.9	29.7	23.6	32.1	30.5	38.2										
O=C(Nc1nc2ccccc2n1Cc1ccccc1)NC12CC3CC(CC(C3)C1)C2	> 100	> 100	> 100	> 100	> 100	37	83.6	> 100										

From PubChem BioAssay (NCI)
